EC50 data for 11 molecules are collected here from ChEMBL document CHEMBL1128833, “Aliphatic replacements of the biphenyl moiety of the nonpeptidyl growth hormone secretagogues L-692,429 and L-692,585” (1995).

Experiment [1] is filed under the species Rattus norvegicus. Put plainly: In vitro Growth hormone releasing activity in rat pituitary cells. In kind it is functional, Pituitary gland cell. As to conditions: read-out: ED50 (the source's name).
For experiment [2], the species on record is Rattus norvegicus. Briefly: In vitro Growth hormone releasing activity in rat pituitary cells; weakly active at 1 uM. It counts as functional. As to conditions: Pituitary gland cell, read-out: ED50 (the source's name).
Setting [3] is: Rattus norvegicus, Pituitary gland cell.

In the case of `CC(C)(N)CC(=O)N[C@@H]1CCc2ccccc2N(Cc2ccccc2)C1=O`, the EC50 in the experiment listed under Rattus norvegicus [1] (setting [3]) amounted to 7000 nM.

As to `CC(C)(N)CC(=O)N[C@@H]1CCc2ccccc2N(Cc2ccc(-c3ccccc3)c(-c3nn[nH]n3)c2)C1=O`, the EC50 in the experiment filed under Rattus norvegicus [2] was above 1000 nM.

Take `CC(C)(N)CC(=O)N[C@@H]1CCc2ccccc2N(CC2CCC(c3ccccc3-c3nn[nH]n3)CC2)C1=O` (stereo partly specified): in the experiment listed under Rattus norvegicus [1] (setting [3]), the EC50 is 860 nM.

On to `CC(C)(N)CC(=O)N[C@@H]1CCc2ccccc2N(Cc2ccc(-c3ccccc3)cc2)C1=O`, for which the EC50 in the experiment filed under Rattus norvegicus [1] (setting [3]) turned out to be 3000 nM.

On to `CC(C)(N)CC(=O)N[C@@H]1CCc2ccccc2N(Cc2ccc(-c3ccccc3-c3nn[nH]n3)cc2)C1=O`, for which the EC50 in the experiment listed under Rattus norvegicus [1] (setting [3]) was found to be 60 nM.

On to `C[C@@H](O)CNC(C)(C)CC(=O)N[C@@H]1CCc2ccccc2N(CC2CCC(c3ccccc3-c3nn[nH]n3)CC2)C1=O` (stereo partly specified), for which, in the experiment filed under Rattus norvegicus [1] (setting [3]), the EC50 amounted to 75 nM.

On to `CC(C)(N)CC(=O)N[C@@H]1CCc2ccccc2N(CC2=CCC(c3ccccc3-c3nn[nH]n3)CC2)C1=O` (stereo in doubt; 34), for which, in the experiment filed under Rattus norvegicus [1], the EC50 came out at 1200 nM.

For the molecule `CC(C)(N)CC(=O)N[C@@H]1CCc2ccccc2N(CC2=CCC(c3ccccc3-c3nn[nH]n3)CC2)C1=O` (stereo in doubt; 35), the EC50 in the experiment filed under Rattus norvegicus [1] stood at 120 nM.

On to `C[C@@H](O)CNC(C)(C)CC(=O)N[C@@H]1CCc2ccccc2N(CC2=CCC(c3ccccc3-c3nn[nH]n3)CC2)C1=O` (stereo in doubt; 36), for which, in the experiment listed under Rattus norvegicus [1], the EC50 was 25 nM.

As to `C[C@@H](O)CNC(C)(C)CC(=O)N[C@@H]1CCc2ccccc2N(CC2=CCC(c3ccccc3-c3nn[nH]n3)CC2)C1=O` (stereo in doubt; 37), the EC50 in the experiment filed under Rattus norvegicus [1] came to 7 nM.

With `C[C@@H](O)CNC(C)(C)CC(=O)N[C@@H]1CCc2ccccc2N(Cc2ccc(-c3ccccc3-c3nn[nH]n3)cc2)C1=O` [L-692585], the EC50 in the experiment filed under Rattus norvegicus [1] (setting [3]) came out at 3 nM.
